# Experimental data taken from patent publication US4196205A, “3-Acetoxymethyl-7-(iminoacetamido)-cephalosporanic acid derivatives” (priority 1976, dated 1980).
# Read-outs that look alike come from different tables or passages of the source.
# How the values were obtained:
# Proteus Mirabilis A 235 = assay: Experimental infection of Proteus Mirabilis in mice; type: in vivo
# Method: Groups of 10 mice with an average weight of 22 g received intraperitoneally 0.5 ml of a 24 hour old culture in oxoid bouillon of Proteus Mirabilis A 235 diluted 1/4 with distilled water. The mice then received subcutaneously the compound of Examples 11 or 15 one hour and 5 and 24 hours after the infection and the results are reported in the following Table.
# [1] = system: Staphylococcus aureus UC 1 128 Pen-Resistant; assay: MIC, dilution in liquid medium; type: cell-based; conditions: Staphylococcus aureus
# Method: (§1) The method used was a dilution of a liquid medium where a series of tubes received the same quantity of a sterile nutritive media and increasing doses of the test compounds were placed therein. Then each tube was seeded with a bacterial strain and was incubated for 24 to 48 hours at 37° C. in an oven. The increasing inhibition was determined by transillumination to determine the minimum inhibiting concentration (MIC in […]) and the results are reported in the following Tables.
# [2] = system: Proteus mirabilis (indol-) A 235; assay: MIC, dilution in liquid medium; type: cell-based
# Method: as §1
# [3] = system: Staphylococcus aureus ATCC 5 638 Pen-Sensible = UC 1061; assay: MIC, dilution in liquid medium; type: cell-based
# Method: as §1
# [4] = system: Bacillus subtilis ATCC 6 633; assay: MIC, dilution in liquid medium; type: cell-based; conditions: 24 H
# Method: as §1
# [5] = system: Streptococcus faecalis 99 F 74; assay: MIC, dilution in liquid medium; type: cell-based; conditions: Enterococcus faecalis, read-out: M.I.C.
# Method: as §1
# [6] = system: Serratia Resistant Gentamicine 2 532; assay: MIC, dilution in liquid medium; type: cell-based; conditions: read-out: M.I.C.
# Method: as §1
# [7] = system: Streptococcus faecalis 5 432; assay: MIC, dilution in liquid medium; type: cell-based; conditions: read-out: M.I.C.
# Method: as §1
# [8] = system: Escherichia Coli Resistant Gentamicine, Tobramycine R 55 123 D; assay: MIC, dilution in liquid medium; type: cell-based; conditions: Escherichia coli
# Method: as §1
# [9] = system: Escherichia Coli Resistant Tetracycline ATCC 11 303 = UC 1261; assay: MIC, dilution in liquid medium; type: cell-based; conditions: Escherichia coli
# Method: as §1
# [10] = system: Streptococcus pyogenes A 561; assay: MIC, dilution in liquid medium; type: cell-based; conditions: Streptococcus pyogenes
# Method: as §1
# [11] = system: Proteus vulgaris (indol+) A 232; assay: MIC, dilution in liquid medium; type: cell-based; conditions: Proteus vulgaris, read-out: M.I.C.
# Method: as §1
# Providencia Du 48 = assay: MIC, dilution in liquid medium; type: cell-based; conditions: for MIC: Providencia, read-out: M.I.C.
# Method: as §1
# [12] = system: Klebsiella pneumoniae Exp. 52 145; assay: MIC, dilution in liquid medium; type: cell-based; conditions: for MIC: Klebsiella pneumoniae
# Method: as §1
# [13] = system: Salmonella typhimurium 420; assay: MIC, dilution in liquid medium; type: cell-based; conditions: Salmonella enterica, TYPHIMURIUM, read-out: M.I.C.
# Method: as §1
# [14] = system: Escherichia Coli Exp. TO26 B6; assay: MIC, dilution in liquid medium; type: cell-based; conditions: 48 H
# Method: as §1
# [15] = system: Staphylococcus aureus exp. n° 54 146; assay: MIC, dilution in liquid medium; type: cell-based; conditions: Staphylococcus aureus
# Method: as §1
# [16] = system: Klebsiella pneumoniae 2 536 Resistant Gentamicine; assay: MIC, dilution in liquid medium; type: cell-based; conditions: Klebsiella pneumoniae, read-out: M.I.C.
# Method: as §1
# [17] = system: Escherichia Coli Sensible Tetracycline ATCC 9 637 = 1020; assay: MIC, dilution in liquid medium; type: cell-based; conditions: Escherichia coli, read-out: M.I.C.
# Method: as §1
# [18] = system: Pseudomonas 3 935 Exp. SG; assay: MIC, dilution in liquid medium; type: cell-based; conditions: Pseudomonas, 3935EXP.SG, read-out: M.I.C.
# Method: as §1
smiles,measurement,setting,value
"CCO/N=C(/C(=O)NC1C(=O)N2C(C(=O)O)=C(COC(C)=O)CSC12)c1csc(N)n1 (stereo not drawn) [Example 15, anti isomer of 3-acetoxymethyl-7-[2-(2-amino-4-thiazolyl)-2-ethoxyiminoacetamido]-ceph-3-eme-4-carboxylic acid]",MORTALITY AFTER 6H55,Proteus Mirabilis A 235; 0.5 mg subcutaneously,1
same,MORTALITY AFTER 21H30,Proteus Mirabilis A 235; 0.5 mg subcutaneously,9
same,Mice Alive on the 8th day,Proteus Mirabilis A 235; 0.5 mg subcutaneously,0/10
same,MORTALITY AFTER 21H30,Proteus Mirabilis A 235; 1 mg subcutaneously,5
same,MORTALITY AFTER 23H10,Proteus Mirabilis A 235; 1 mg subcutaneously,1
same,MORTALITY AFTER 23H30,Proteus Mirabilis A 235; 1 mg subcutaneously,1
same,MORTALITY AFTER 28H,Proteus Mirabilis A 235; 1 mg subcutaneously,2
same,MORTALITY AFTER 70H,Proteus Mirabilis A 235; 1 mg subcutaneously,1
same,Mice Alive on the 8th day,Proteus Mirabilis A 235; 1 mg subcutaneously,0/10
same,MIC,"[1]; UC1, 24 h, 24 H",40 µg/mL
same,MIC,"[1]; UC1, 48 h, 48 H",40 µg/mL
same,M.I.C.,[2]; 24 H,5 µg/mL
same,MIC,"[2]; Proteus mirabilis, 24 h, read-out: M.I.C.",10 µg/mL
same,MIC,[3]; 24 h,20 µg/mL
same,MIC,[3]; 48 h,20 µg/mL
same,M.I.C.,[4],20 µg/mL
same,MIC,"[4]; Bacillus subtilis, ATCC6, 24 h, read-out: M.I.C.",10 µg/mL
same,MIC,"[5]; 99F74, 24 h",> 100 µg/mL
same,MIC,"[5]; 99F74, 48 h",> 100 µg/mL
same,MIC,[6]; 24 h,> 100 µg/mL
same,MIC,[6]; 48 h,> 100 µg/mL
same,MIC,"[7]; Enterococcus faecalis, 5432, 24 h",> 100 µg/mL
same,MIC,"[7]; Enterococcus faecalis, 5432, 48 h",> 100 µg/mL
same,MIC,[8]; 24 h,40 µg/mL
same,MIC,"[8]; 24 h, read-out: M.I.C.",100 µg/mL
same,MIC,[8]; 48 h,40 µg/mL
same,MIC,"[8]; 48 h, read-out: M.I.C.",100 µg/mL
same,MIC,[9]; 24 h,20 µg/mL
same,MIC,"[9]; 24 h, read-out: M.I.C.",10 µg/mL
same,MIC,[9]; 48 h,20 µg/mL
same,MIC,"[9]; 48 h, read-out: M.I.C.",10 µg/mL
same,MIC,"[10]; A561, 24 h",1 µg/mL
same,MIC,"[10]; A561, 24 h, 24 H, read-out: M.I.C.",0.4 µg/mL
same,MIC,"[10]; A561, 48 h",1 µg/mL
same,MIC,"[10]; A561, 48 h, 48 H, read-out: M.I.C.",0.4 µg/mL
same,MIC,[11]; 24 h,> 100 µg/mL
same,MIC,[11]; 48 h,> 100 µg/mL
same,M.I.C.,Providencia Du 48; 24 H,> 100 µg/mL
same,MIC,"Providencia Du 48; DU48, 24 h, 24 H",100 µg/mL
same,MIC,"Providencia Du 48; DU48, 48 h, 48 H",> 100 µg/mL
same,M.I.C.,[12]; 24 H,40 µg/mL
same,M.I.C.,[12]; 48 H,40 µg/mL
same,MIC,"[12]; EXP.52145, 24 h, 24 H",20 µg/mL
same,MIC,"[12]; EXP.52145, 48 h, 48 H",20 µg/mL
same,MIC,[13]; 24 h,100 µg/mL
same,MIC,[13]; 48 h,100 µg/mL
same,M.I.C.,[14],40 µg/mL
same,MIC,[15]; 24 h,40 µg/mL
same,MIC,[15]; 48 h,40 µg/mL
same,MIC,[16]; 24 h,> 100 µg/mL
same,MIC,[16]; 48 h,> 100 µg/mL
same,MIC,"[17]; ATCC9, 24 h, 24 H",> 100 µg/mL
same,MIC,"[17]; ATCC9, 48 h, 48 H",> 100 µg/mL
same,MIC,[18]; 24 h,> 100 µg/mL
same,MIC,[18]; 48 h,> 100 µg/mL
